Experimental data as given in patent publication US20050197350A1, “Novel quinoline, tetrahydroquinazoline, and pyrimidine derivatives and methods of treatment related to the use thereof” (TAISHO PHARMACEUTICAL CO., LTD., priority 2003, published 2005).

The compounds below were run on MCH receptors (assay: MCH receptor activity class (method not given)). Conditions: not given.

class | SMILES
1 | Cc1cc(N(C)C)nc(N[C@H]2CC[C@@H](C(=O)NCc3cc(Cl)ccc3Cl)CC2)n1 [Example 2573, cis-N-(2,5-dichlorobenzyl)-4-{[4-(dimethylamino)-6-methylpyrimidin-2-yl]amino}cyclohexanecarboxamide]

Same assay, conditions: MCH receptor activity class 1-3 (percent of control at 10^-7 M or IC50)

SMILES | class
Cc1c(NC(=O)NC[C@H]2CC[C@@H](Nc3nc4c(c(N(C)C)n3)CCCC4)CC2)cccc1[N+](=O)[O-] [compound 2473] | 3 (Class 3 The value of percent of control at 10^−7 M was more than 60% or the value of IC50 was more than 200 nM.)
CN(C)c1cc(N[C@H]2CC[C@@H](NC(=S)Nc3ccc4c(c3)OCCO4)CC2)nc2ccccc12 [compound 2304] | 3 (Class 3 The value of percent of control at 10^−7 M was more than 60% or the value of IC50 was more than 200 nM.)

Same assay, conditions: MCH receptor; class by percent of control at 10^-7 M or IC50

SMILES | class
CN(C)c1nc(N[C@H]2CC[C@@H](NC(=S)Nc3ccc(Br)cc3F)CC2)nc2c1CCCC2 [compound 1991] | 3 (Class 3 The value of percent of control at 10^−7 M was more than 60% or the value of IC50 was more than 200 nM.)
CN(C)c1cc(N[C@H]2CC[C@@H](NC(=O)/C=C/c3ccc([N+](=O)[O-])cc3)CC2)nc2ccccc12 [compound 79] | 3 (Class 3 The value of percent of control at 10^−7 M was more than 60% or the value of IC50 was more than 200 nM.)
CN(C)c1cc(N[C@H]2CC[C@@H](CNC(=O)c3cncc(Br)c3)CC2)nc2ccccc12 [compound 215] | 3 (Class 3 The value of percent of control at 10^−7 M was more than 60% or the value of IC50 was more than 200 nM.)
CCCSc1ncccc1C(=O)N[C@H]1CC[C@@H](Nc2cc(N(C)C)c3ccccc3n2)CC1 [compound 84] | 3 (Class 3 The value of percent of control at 10^−7 M was more than 60% or the value of IC50 was more than 200 nM.)
CSc1ccccc1NC(=S)N[C@H]1CC[C@@H](Nc2nc3c(c(N(C)C)n2)CCCC3)CC1 [compound 1967] | 3 (Class 3 The value of percent of control at 10^−7 M was more than 60% or the value of IC50 was more than 200 nM.)
CN(C)c1cc(N[C@H]2CC[C@@H](CNC(=O)/C=C/c3ccccc3)CC2)nc2ccccc12 [compound 153] | 3 (Class 3 The value of percent of control at 10^−7 M was more than 60% or the value of IC50 was more than 200 nM.)
CN(C)c1nc(N[C@H]2CC[C@@H](NC(=S)Nc3c(F)cc(F)cc3F)CC2)nc2c1CCCC2 [compound 2001] | 3 (Class 3 The value of percent of control at 10^−7 M was more than 60% or the value of IC50 was more than 200 nM.)
COc1ccc([N+](=O)[O-])cc1NC(=S)N[C@H]1CC[C@@H](Nc2nc3c(c(N(C)C)n2)CCCC3)CC1 [compound 2039] | 3 (Class 3 The value of percent of control at 10^−7 M was more than 60% or the value of IC50 was more than 200 nM.)
CN(C)c1cc(N[C@H]2CC[C@@H](NC(=O)c3cc(C(F)(F)F)ccc3F)CC2)nc2ccccc12 [compound 65] | 3 (Class 3 The value of percent of control at 10^−7 M was more than 60% or the value of IC50 was more than 200 nM.)
CN(C)c1nc(N[C@H]2CC[C@@H](NC(=S)NC3CC3)CC2)nc2c1CCCC2 [compound 2029] | 3 (Class 3 The value of percent of control at 10^−7 M was more than 60% or the value of IC50 was more than 200 nM.)

Same assay, conditions: activity class 1-3: percent of control at 10^-7 M or IC50

SMILES | class
CN(C)c1ccnc(N[C@H]2CC[C@@H](CNC(=O)Oc3ccc4ccccc4c3)CC2)n1 [compound 1649] | 3 (Class 3 The value of percent of control at 10^−7 M was more than 60% or the value of IC50 was more than 200 nM.)

Same assay, conditions: activity class per percent of control at 10^-7 M or IC50

SMILES | class
COc1cc(C(=O)NC[C@H]2CC[C@@H](Nc3nc4c(c(N(C)C)n3)CCCC4)CC2)ccc1[N+](=O)[O-] [compound 1077] | 3 (Class 3 The value of percent of control at 10^−7 M was more than 60% or the value of IC50 was more than 200 nM.)
CN(C)c1cc(N[C@H]2CC[C@@H](CNCc3cc(C(F)(F)F)ccc3F)CC2)nc2ccccc12 [compound 1153] | 3 (Class 3 The value of percent of control at 10^−7 M was more than 60% or the value of IC50 was more than 200 nM.)
CSc1sc(C(=O)N[C@H]2CC[C@@H](Nc3nc4c(c(N(C)C)n3)CCCC4)CC2)c(Cl)c1S(=O)(=O)C(C)C [compound 1041] | 3 (Class 3 The value of percent of control at 10^−7 M was more than 60% or the value of IC50 was more than 200 nM.)
CN(C)c1nc(N[C@H]2CC[C@@H](NC(=O)c3ccc(C(F)(F)F)c(F)c3)CC2)nc2c1CCCC2 [compound 1048] | 3 (Class 3 The value of percent of control at 10^−7 M was more than 60% or the value of IC50 was more than 200 nM.)

Same assay, conditions: class 1-3 by percent of control at 10^-7 M or IC50

SMILES | class
CN(C)c1nc(N[C@H]2CC[C@@H](NC(=O)c3csc4ccccc34)CC2)nc2c1CCCC2 [compound 527] | 3 (Class 3 The value of percent of control at 10^−7 M was more than 60% or the value of IC50 was more than 200 nM.)
CN(C)c1nc(N[C@H]2CC[C@@H](NC(=O)c3cccc(OC(F)(F)F)c3)CC2)nc2c1CCCC2 [compound 490] | 2 (Class 2: The value of percent of control at 10^−7 M was from 40% to 60% or the value of IC′50 was from 50 nM to 200 nM.)
CN(C)c1nc(N[C@H]2CC[C@@H](NC(=O)c3ccc(F)c(C(F)(F)F)c3)CC2)nc2c1CCCC2 [compound 542] | 1 (Class 1: The value of percent of control at 10^−7 M was less than 40% or the value of IC50 was less than 50 nM.)
CN(C)c1nc(N[C@H]2CC[C@@H](NC(=O)c3ccc4ccccc4c3)CC2)nc2c1CCCC2 [compound 546] | 3 (Class 3 The value of percent of control at 10^−7 M was more than 60% or the value of IC50 was more than 200 nM.)
CN(C)c1nc(N[C@H]2CC[C@@H](NC(=O)c3ccc4c(c3)OCO4)CC2)nc2c1CCCC2 [compound 483] | 3 (Class 3 The value of percent of control at 10^−7 M was more than 60% or the value of IC50 was more than 200 nM.)
COc1ccc(CC(=O)NC[C@H]2CC[C@@H](Nc3nccc(N(C)C)n3)CC2)cc1 [compound 414, N-[(cis-4-{[4-(dimethylamino)pyrimidin-2-yl]amino}cyclohexyl)methyl]-2-(4-methoxyphenyl)acetamide] | 2 (Class 2: The value of percent of control at 10^−7 M was from 40% to 60% or the value of IC′50 was from 50 nM to 200 nM.)

Same assay, conditions: class by percent of control at 10^-7 M or IC50

SMILES | class
Cc1cc(C)cc(NC(=O)N[C@H]2CC[C@@H](Nc3nc4c(c(N(C)C)n3)CCCC4)CC2)c1 [compound 1869] | 3 (Class 3 The value of percent of control at 10^−7 M was more than 60% or the value of IC50 was more than 200 nM.)
COc1ccc(NC(=O)N[C@H]2CC[C@@H](Nc3nccc(N(C)C)n3)CC2)cc1Cl [compound 2241] | 3 (Class 3 The value of percent of control at 10^−7 M was more than 60% or the value of IC50 was more than 200 nM.)
CN(C)c1ccnc(N[C@H]2CC[C@@H](CNC(=O)/C=C/c3ccccc3)CC2)n1 [compound 371] | 2 (Class 2: The value of percent of control at 10^−7 M was from 40% to 60% or the value of IC′50 was from 50 nM to 200 nM.)
CN(C)c1nc(N[C@H]2CC[C@@H](NC(=S)Nc3ccc(Cl)cc3C(F)(F)F)CC2)nc2c1CCCC2 [Example 1774] | 2 (Class 2: The value of percent of control at 10^−7 M was from 40% to 60% or the value of IC′50 was from 50 nM to 200 nM.)
CN(C)c1cc(N[C@H]2CC[C@@H](NC(=O)c3ccc([N+](=O)[O-])cc3F)CC2)nc2ccccc12 [compound 773] | 3 (Class 3 The value of percent of control at 10^−7 M was more than 60% or the value of IC50 was more than 200 nM.)
CN(C)c1nc(N[C@H]2CC[C@@H](NC(=O)Nc3cccc(Oc4ccccc4)c3)CC2)nc2c1CCCC2 [compound 1875] | 3 (Class 3 The value of percent of control at 10^−7 M was more than 60% or the value of IC50 was more than 200 nM.)
CN(C)c1nc(N[C@H]2CC[C@@H](CNCCCOc3ccccc3)CC2)nc2c1CCCC2 [compound 1505] | 3 (Class 3 The value of percent of control at 10^−7 M was more than 60% or the value of IC50 was more than 200 nM.)
Cc1cc(CNC[C@H]2CC[C@@H](Nc3nccc(N(C)C)n3)CC2)cc(C)c1O [compound 1261] | 1 (Class 1: The value of percent of control at 10^−7 M was less than 40% or the value of IC50 was less than 50 nM.)
CN(C)c1nc(N[C@H]2CC[C@@H](NCCc3cccc(Cl)c3)CC2)nc2c1CCCC2 [compound 1482] | 3 (Class 3 The value of percent of control at 10^−7 M was more than 60% or the value of IC50 was more than 200 nM.)
COc1ccc(CNC[C@H]2CC[C@@H](Nc3nccc(N(C)C)n3)CC2)cc1OC [compound 1314] | 2 (Class 2: The value of percent of control at 10^−7 M was from 40% to 60% or the value of IC′50 was from 50 nM to 200 nM.)
CCCCC/C(=C\c1ccccc1)CN[C@H]1CC[C@@H](Nc2nccc(N(C)C)n2)CC1 [compound 1232] | 3 (Class 3 The value of percent of control at 10^−7 M was more than 60% or the value of IC50 was more than 200 nM.)
COc1cc(CNC[C@H]2CC[C@@H](Nc3cc(N(C)C)c4ccccc4n3)CC2)cc2c1OCO2 [compound 1188] | 2 (Class 2: The value of percent of control at 10^−7 M was from 40% to 60% or the value of IC′50 was from 50 nM to 200 nM.)
CN(C)c1nc(N[C@H]2CC[C@@H](NC(=O)c3ccc([N+](=O)[O-])s3)CC2)nc2c1CCCC2 [compound 964] | 1 (Class 1: The value of percent of control at 10^−7 M was less than 40% or the value of IC50 was less than 50 nM.)
CN(C)c1nc(N[C@H]2CC[C@@H](CNC(=O)C3C[C@H]3c3ccccc3)CC2)nc2c1CCCC2 (stereo partly shown) [compound 608] | 3 (Class 3 The value of percent of control at 10^−7 M was more than 60% or the value of IC50 was more than 200 nM.)
COc1cc(CN[C@H]2CC[C@@H](Nc3nc4c(c(N(C)C)n3)CCCC4)CC2)cc(OC)c1 [compound 1342] | 2 (Class 2: The value of percent of control at 10^−7 M was from 40% to 60% or the value of IC′50 was from 50 nM to 200 nM.)

Same assay, conditions: class by percent of control at 10^−7 M or IC50

SMILES | class
Cc1cc(N(C)C)nc(NC[C@H]2CC[C@@H](NC(=O)c3ccc(F)c(F)c3)CC2)n1 [compound 2734, N-[cis-4-({[4-(dimethylamino)-6-methylpyrimidin-2-yl]amino}methyl)cyclohexyl]-3,4-difluorobenzamide] | 3 (Class 3 The value of percent of control at 10^−7 M was more than 60% or the value of IC50 was more than 200 nM.)
